Measurements from PubChem BioAssay AID651650 (Sanford-Burnham Center for Chemical Genomics, 2012).
Calls of active or inactive are those of the source.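 The calls were made as follows: active = mean IC50 below 20 µM in each of the two panels, so potent in both; inactive = the rest.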

Biological target: Neuropilin-1 (Homo sapiens) (UniProt O14786)
Assay: NRP-1 b1b2 CendR peptide binding inhibitors, dose response, biochemical, FP and AlphaScreen panel (AID 651650)
Conditions: NRP-1 b1b2 / RPARPAR peptide binding, FP or AlphaScreen
[1] = AlphaScreen, run 1, individual panel run IC50
[2] = FP, run 1, individual panel run IC50
[3] = FP, run 2, individual panel run IC50

Sequence of Neuropilin-1 (Homo sapiens) (O14786 whole entry, looked up): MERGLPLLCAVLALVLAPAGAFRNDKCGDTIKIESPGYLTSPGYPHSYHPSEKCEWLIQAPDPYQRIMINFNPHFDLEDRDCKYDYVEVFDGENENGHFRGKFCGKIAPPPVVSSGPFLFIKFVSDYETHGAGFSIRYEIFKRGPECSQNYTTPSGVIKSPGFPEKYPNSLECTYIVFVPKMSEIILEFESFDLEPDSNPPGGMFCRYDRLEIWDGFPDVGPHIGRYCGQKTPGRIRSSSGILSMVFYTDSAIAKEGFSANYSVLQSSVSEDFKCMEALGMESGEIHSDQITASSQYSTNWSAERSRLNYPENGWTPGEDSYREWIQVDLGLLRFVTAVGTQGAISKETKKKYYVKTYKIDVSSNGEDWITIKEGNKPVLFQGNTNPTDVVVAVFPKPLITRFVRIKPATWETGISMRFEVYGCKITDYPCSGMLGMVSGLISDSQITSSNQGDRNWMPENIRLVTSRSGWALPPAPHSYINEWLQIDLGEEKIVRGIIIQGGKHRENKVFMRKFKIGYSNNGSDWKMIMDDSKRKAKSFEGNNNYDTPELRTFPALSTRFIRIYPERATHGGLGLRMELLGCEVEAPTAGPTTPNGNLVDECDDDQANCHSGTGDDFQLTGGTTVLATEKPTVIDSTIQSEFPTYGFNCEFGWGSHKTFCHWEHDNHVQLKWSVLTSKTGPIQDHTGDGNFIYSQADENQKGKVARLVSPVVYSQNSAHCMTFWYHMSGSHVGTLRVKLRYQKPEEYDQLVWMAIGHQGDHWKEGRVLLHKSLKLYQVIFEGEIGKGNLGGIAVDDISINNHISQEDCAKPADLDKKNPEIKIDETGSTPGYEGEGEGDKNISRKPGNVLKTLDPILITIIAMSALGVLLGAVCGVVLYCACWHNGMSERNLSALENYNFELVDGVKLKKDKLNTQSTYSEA

Compound | IC50 (AlphaScreen, mean of runs) | IC50 [1] [µM] | IC50 (FP, mean of runs) | IC50 [2] [µM] | IC50 [3] [µM]
COc1ccc(CCN=C2SCC(=O)N2Cc2ccccc2)cc1OC | > 100 µM (inactive) | > 100 | > 95 µM (inactive) | > 95 | > 95
O=C(NCCCN1CCCCCC1)c1ccc(CS(=O)(=O)Cc2ccccc2F)o1 | > 100 µM (inactive) | > 100 | > 95 µM (inactive) | > 95 | > 95
CC1(C(=O)NCc2cccc3ccccc23)CCN1Cc1cccc2c1OCO2 (stereo not given) | > 100 µM (inactive) | > 100 | > 95 µM (inactive) | > 95 | > 95
O=C1N[C@H](Cc2c[nH]c3ccccc23)COC(=O)[C@H](Cc2ccc(F)cc2)C/C=C\C[C@H]1CC(=O)N(CCO)Cc1ccccc1 | 15 µM | 15 | > 95 µM (inactive) | > 95 | > 95
Fc1cc(Cl)ccc1Nc1nc(NCc2ccccc2)nc2ccsc12 | > 100 µM (inactive) | > 100 | > 95 µM (inactive) | > 95 | > 95
O=C1CCCN1CCCNC(=S)Nc1ccc(Cl)cc1Cl | > 100 µM (inactive) | > 100 | > 95 µM (inactive) | > 95 | > 95
COc1ccccc1C(=O)NC(=O)CSc1nncn1C | > 100 µM (inactive) | > 100 | > 95 µM (inactive) | > 95 | > 95
COc1ccc(N(CC(=O)NCc2ccco2)C(=O)CCC(=O)Nc2ccccn2)cc1 | > 100 µM (inactive) | > 100 | > 95 µM (inactive) | > 95 | > 95
NC(=O)c1c(NC(=O)C(=O)N2CCOCC2)sc2c1CCCC2 | > 100 µM (inactive) | > 100 | > 95 µM (inactive) | > 95 | > 95
CCC1CCCCN1C(=S)Nc1ccc(OC(F)F)cc1 (stereo not given) | inactive | 32.8 | > 95 µM (inactive) | > 95 | > 95
COc1ccc(Cn2c3ccc(OC)cc3c3nc4ccccc4nc32)cc1 | inactive | 38.9 | > 95 µM (inactive) | > 95 | > 95
CCC1=C(OC(=O)N(CC)CC)N2C(=O)OC(=NCC3CC3)[C@]2(Cc2ccccc2)[C@H]2C1=CC[C@H]1C(=O)N(C)C(=O)[C@H]12 | > 100 µM (inactive) | > 100 | > 95 µM (inactive) | > 95 | > 95
O=C(Cc1ccc(F)cc1)N1CCN=C1SCc1ccc([N+](=O)[O-])cc1 | > 100 µM (inactive) | > 100 | > 95 µM (inactive) | > 95 | > 95
Cc1ccc(C(=O)OCC(=O)c2ccc(Cl)s2)s1 | > 100 µM (inactive) | > 100 | > 95 µM (inactive) | > 95 | > 95
O=C1CCN(Cc2ccccc2)S(=O)(=O)c2ccccc21 | > 100 µM (inactive) | > 100 | > 95 µM (inactive) | > 95 | > 95
C[C@@H](NC(=O)c1nc[nH]c1C(=O)NCc1ccccc1)c1ccccc1 | > 100 µM (inactive) | > 100 | > 95 µM (inactive) | > 95 | > 95
Cc1csc(NC(C)c2nc3cc(C(F)(F)F)ccc3n2CCCO)n1 (stereo not given) | 8.6 µM | 8.6 | > 95 µM (inactive) | > 95 | > 95
O=C(Nc1ccc(F)cc1)c1cc(S(=O)(=O)Nc2ccc(F)cc2)cs1 | > 100 µM (inactive) | > 100 | > 95 µM (inactive) | > 95 | > 95
CCOC(=O)C1(Cc2cccc(F)c2)CCN(Cc2ccon2)CC1 | 9.02 µM | 9.02 | > 95 µM (inactive) | > 95 | > 95
COc1ccc(/C=N/NC(=O)c2nn(-c3ccc(Cl)cc3)c(=O)c3c(N)scc23)cc1 | > 100 µM (inactive) | > 100 | > 95 µM (inactive) | > 95 | > 95
COc1ccc(C(CNc2ccc(S(=O)(=O)N3CCCC3)cc2[N+](=O)[O-])N2CCCC2)cc1 (stereo not given) | 12.2 µM | 12.2 | > 95 µM (inactive) | > 95 | > 95
O=Cc1ccc(-c2ccccc2C(=O)O)o1 | > 100 µM (inactive) | > 100 | > 95 µM (inactive) | > 95 | > 95

Other lines, results leading:

IC50 (AlphaScreen, mean of runs) | IC50 [1] [µM] | IC50 (FP, mean of runs) | IC50 [2] [µM] | IC50 [3] [µM] | Compound
> 100 µM (inactive) | > 100 | > 95 µM (inactive) | > 95 | > 95 | CCN(C[C@H]1N[C@@](CC)(C(=O)OC)[C@H]2C(=O)N(C)C(=O)[C@@H]12)S(=O)(=O)c1ccc(OC)cc1
> 100 µM (inactive) | > 100 | > 95 µM (inactive) | > 95 | > 95 | Cc1ccccc1S(=O)(=O)Nc1nc2ccccc2nc1NCCO
> 100 µM (inactive) | > 100 | > 95 µM (inactive) | > 95 | > 95 | CCC1=C(OC(=O)N(CC)CC)N2C(=O)OC(=NCCOC)[C@]2(Cc2ccccc2)[C@H]2C1=CC[C@H]1C(=O)N(CC(=O)OC)C(=O)[C@H]12
> 100 µM (inactive) | > 100 | > 95 µM (inactive) | > 95 | > 95 | CCn1ncc(Br)c1C(=O)N(C)C12CC3CC(CC(C3)C1)C2
> 100 µM (inactive) | > 100 | > 95 µM (inactive) | > 95 | > 95 | O=C(/C=C/c1ccco1)N/C(=C\c1ccccc1)C(=O)NCCc1nc2ccccc2[nH]1
> 100 µM (inactive) | > 100 | > 95 µM (inactive) | > 95 | > 95 | COc1ccc(C(=O)N2CCC(C(=O)NCc3ccccn3)CC2)cc1
> 100 µM (inactive) | > 100 | > 95 µM (inactive) | > 95 | > 95 | CCN(CC)C(=O)C1CCCN(C(=O)Nc2ccc3nsnc3c2)C1 (stereo not given)
> 100 µM (inactive) | > 100 | inactive | > 95 | 56.1 | Cn1c(=O)c2[nH]c(NCCCN3CCOCC3)nc2n(C)c1=O
inactive | 44.2 | > 95 µM (inactive) | > 95 | > 95 | CN(C)CCn1c(=O)n(-c2ccc(F)cc2)c(=O)c2c3c(sc21)CCCCC3
> 100 µM (inactive) | > 100 | > 95 µM (inactive) | > 95 | > 95 | C[C@@H](C(=O)Nc1cccnc1)n1c(=O)[nH]c2ccccc2c1=O
> 100 µM (inactive) | > 100 | > 95 µM (inactive) | > 95 | > 95 | O=C(O)C1CCN(C(=O)c2ccc(Cl)cc2)CC1
> 100 µM (inactive) | > 100 | > 95 µM (inactive) | > 95 | > 95 | Cc1ccc(C(=O)Nc2nnc([C@H]3C[C@H](O)[C@@H](CO)O3)s2)cc1
> 100 µM (inactive) | > 100 | > 95 µM (inactive) | > 95 | > 95 | Oc1ccc(-c2nc3ncccn3c2Nc2ccc3c(c2)OCO3)cc1
> 100 µM (inactive) | > 100 | > 95 µM (inactive) | > 95 | > 95 | CC(/C=C/c1ccccc1)=N\NC(=O)CCc1ccccc1
> 100 µM (inactive) | > 100 | > 95 µM (inactive) | > 95 | > 95 | CCOC(=O)C(NC(=O)CC(C)C)(Nc1sc(C)c(CC)c1C#N)C(F)(F)F (stereo not given)
inactive | 28 | > 95 µM (inactive) | > 95 | > 95 | O=C1CCCN1CCCNc1nc(NCc2cccs2)nc2ccsc12
inactive | 35.5 | > 95 µM (inactive) | > 95 | > 95 | COc1ccc(NC(=O)CN(C)CC(=O)Nc2cccc(F)c2)cc1Cl
> 100 µM (inactive) | > 100 | > 95 µM (inactive) | > 95 | > 95 | COC(=O)c1ccccc1NC(=O)CSc1nc(C)cc(C)n1
inactive | 44.1 | > 95 µM (inactive) | > 95 | > 95 | CN(c1ccc(OCC(=O)OCC(=O)Nc2ccc([N+](=O)[O-])cc2)cc1)S(=O)(=O)c1cccs1
> 100 µM (inactive) | > 100 | > 95 µM (inactive) | > 95 | > 95 | Cc1cc2c(=O)[nH]cnc2s1
inactive | 37.1 | > 95 µM (inactive) | > 95 | > 95 | CCN(c1ccccc1)S(=O)(=O)c1ccc(C(=O)N(CCCN(C)C)c2nc3cc4c(cc3s2)OCO4)cc1
inactive | 82 | > 95 µM (inactive) | > 95 | > 95 | CNC(=O)NC(=O)C(C)OC(=O)c1c(C)noc1C (stereo not given)
